Reference: US11413278B2, “Compounds and methods for promoting stress resistance” (priority 2015, dated 2022)
Entries after “also recorded” stand apart in the source; their conditions may differ. Like-named read-outs stand apart in the source and are kept apart here.

Tests used:
[1] = molecular target: T1, human PARP1 (Homo sapiens, UniProt P09874); assay: PARP inhibitor assay (HT Fluorescent Homogeneous PARP Inhibition Assay Kit); assay type: biochemical; conditions: score
T1 construct: purchased Trevigen
T1 sequence (P09874 whole entry): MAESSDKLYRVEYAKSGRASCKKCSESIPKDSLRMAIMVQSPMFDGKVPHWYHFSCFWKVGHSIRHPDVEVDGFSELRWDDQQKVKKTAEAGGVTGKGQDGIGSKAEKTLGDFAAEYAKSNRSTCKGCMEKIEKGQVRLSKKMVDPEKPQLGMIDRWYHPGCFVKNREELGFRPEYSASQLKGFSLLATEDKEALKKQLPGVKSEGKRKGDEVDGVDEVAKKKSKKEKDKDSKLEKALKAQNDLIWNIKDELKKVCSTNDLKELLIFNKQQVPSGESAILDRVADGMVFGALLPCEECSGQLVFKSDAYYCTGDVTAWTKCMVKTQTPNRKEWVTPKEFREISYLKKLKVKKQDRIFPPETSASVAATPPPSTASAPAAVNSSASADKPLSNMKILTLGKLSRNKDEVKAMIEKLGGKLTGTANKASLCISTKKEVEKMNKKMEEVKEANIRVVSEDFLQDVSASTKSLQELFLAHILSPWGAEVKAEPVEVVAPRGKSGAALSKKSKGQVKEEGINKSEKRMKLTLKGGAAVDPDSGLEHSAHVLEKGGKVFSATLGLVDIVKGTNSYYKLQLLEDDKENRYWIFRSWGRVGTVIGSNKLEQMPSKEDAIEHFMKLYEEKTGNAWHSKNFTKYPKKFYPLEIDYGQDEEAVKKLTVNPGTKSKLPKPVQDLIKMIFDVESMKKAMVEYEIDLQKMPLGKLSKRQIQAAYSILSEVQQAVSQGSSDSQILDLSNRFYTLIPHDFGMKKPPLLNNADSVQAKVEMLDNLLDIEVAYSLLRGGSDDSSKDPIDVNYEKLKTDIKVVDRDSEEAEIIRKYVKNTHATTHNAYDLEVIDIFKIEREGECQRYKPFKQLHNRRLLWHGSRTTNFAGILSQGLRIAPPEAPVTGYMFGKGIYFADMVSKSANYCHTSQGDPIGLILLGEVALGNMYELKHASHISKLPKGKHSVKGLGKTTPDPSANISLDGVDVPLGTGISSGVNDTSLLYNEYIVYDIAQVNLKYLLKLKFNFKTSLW
Method in brief: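 Compounds (10 μM final) incubated 30 min, room temperature, dark, with human PARP1, nicotinamide adenine dinucleotide and activated DNA. Fluorescent signal generated by 1 hr cycling with diaphorase and resazurin, then reaction stopped.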

[2] = test system: FOXO3; assay: qPCR analysis of FOXO3-regulated genes; assay type: cell-based, human; conditions: for Induction of at least two of five FOXO3-regulated genes (SOD2, GADD45A, CAT, DDB1, TXNIP): WI-38; for fold induction at 10 µM: Homo sapiens; for K = Sestrin induction: score
Method in brief: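 FOXO3 target-gene expression quantified by qPCR normalised to B2M, PPIA and GAPDH, in WI-38 cells after 24 h exposure to 10 μM compound. Some runs used cells first transfected 36 h with 10 nM FOXO3 or NRF2 siRNA and replated ~24 h before dosing.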

[3] = test system: NRF2; assay: qPCR analysis of NRF2-regulated genes; assay type: cell-based, human; conditions: for fold induction at 10 µM: Homo sapiens
Method in brief: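 Expression of HMOX1, NQO1, GCLC and GSTM1 measured by qPCR relative to B2M, PPIA and GAPDH. Cells were WI-38 fibroblasts exposed 24 hrs to 10 μM compound, with RNA and cDNA prepared via Cells-to-Ct. Where stated, cells were first transfected 36 hrs with FOXO3 or NRF2 siRNA at 10 nM.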

[4] = test system: C. elegans; assay: C. elegans lifespan assays (liquid and plate); assay type: in vivo, Caenorhabditis elegans; conditions: for ILS at 60 µM / ILS at 66 µM: Caenorhabditis elegans; for O = Life span- extending scores in worms: score scale 0 to 2, 4 to 6 independent trials; for M = Lifespan-extending scores in worms: summary score
[5] = test system: WI-38 cells; conditions: for Percentage of propidium iodide-positive dead cells (no H2O2 stress treatment), at 10 uM: negative control 0.41% ± 0.23%
Description: WI-38 cells were seeded on 384-well plates for 24 hrs and then incubated with small molecules for 24 hrs. […] Images were collected on an INCell Analyzer 2000 (GE) and analyzed with the Developer software.

[6] = 24 h, Assay 10(m), at 10 uM, qPCR, read-out: Induction of FOXO3-regulated genes: CAT normalized fold-change
[7] = 10 μM, 24 hrs, WI-38 cells, qPCR, normalized to B2M, n = 4, read-out: CAT expression, normalized fold change (FOXO3-regulated gene)
[8] = 10 μM, 24 hrs, WI-38 cells, qPCR, normalized to B2M, n = 4, read-out: SESN1 expression, normalized fold change (FOXO3-regulated gene)
[9] = WI-38 cells, 10 μM, 24 hrs, n=4, qPCR normalized by B2M, read-out: DDB1 Normalized fold change
[10] = WI-38 cells, 10 μM, 24 hrs, n=4, qPCR normalized by B2M, read-out: GADD45A Normalized fold change
[11] = WI-38 cells, 10 μM, 24 hrs, n=4, qPCR normalized by B2M, read-out: SESN1 Normalized fold change
[12] = fold change, qPCR, WI-38 cells, 10 μM, 24 hrs, read-out: Summary of effects on FOXO3-regulated genes: CAT
[13] = fold change, qPCR, WI-38 cells, 10 μM, 24 hrs, read-out: Summary of effects on FOXO3-regulated genes: SESN1
[14] = qPCR, WI-38 cells, 10 μM, n=4, 24 hrs, normalized by B2M, read-out: CAT Normalized fold change
[15] = qPCR, WI-38 cells, 10 μM, n=4, 24 hrs, normalized by B2M, read-out: SOD2 Normalized fold change
[16] = qPCR, WI-38 cells, 10 μM, n=4, 24 hrs, normalized by B2M, read-out: TXNIP Normalized fold change
[17] = 24 h, Assay 12(o), at 10 uM, qPCR, read-out: Induction of NRF2-regulated genes: GCLC normalized fold-change
[18] = 24 h, Assay 12(o), at 10 uM, qPCR, read-out: Induction of NRF2-regulated genes: GSTM1 normalized fold-change
[19] = rounded fold change, WI-38 cells, 10 μM, 24 hrs (RP29 for Gr-4D), read-out: Summary of effects on NRF2-regulated genes: GSTM1
[20] = rounded fold change, WI-38 cells, 10 μM, 24 hrs (RP29 for Gr-4D), read-out: Summary of effects on NRF2-regulated genes: NQO1
[21] = 10 μM, 24 hrs, WI-38 cells, qPCR, normalized to B2M, n = 4, read-out: GSTM1 expression, normalized fold change (NRF2-regulated gene)
[22] = 10 μM, 24 hrs, WI-38 cells, qPCR, normalized to B2M, n = 4, read-out: NQO1 expression, normalized fold change (NRF2-regulated gene)
[23] = WI-38 cells, 10 μM, 24 hrs, n=4, qPCR normalized by B2M, read-out: GCLC Normalized fold change
[24] = WI-38 cells, 10 μM, 24 hrs, n=4, qPCR normalized by B2M, read-out: GSTM1 Normalized fold change
[25] = WI-38 cells, 10 μM, 24 hrs, n=4, qPCR normalized by B2M, read-out: HMOX1 Normalized fold change
[26] = WI-38 cells, 10 μM, 24 hrs, n=4, qPCR normalized by B2M, read-out: NQO1 Normalized fold change
[27] = in liquid, wild type, with FuDR, 1.0 × 10^9 bacteria/ml, read-out: relative change of mean lifespan vs control, Trial 1
[28] = in liquid, wild type, with FuDR, 2.5 × 10^9 bacteria/ml, read-out: relative change of mean lifespan vs control, Trial 2
[29] = on plate, CF512 temperature-sensitive sterile animals, without FuDR, 2.0 × 10^10 bacteria/ml, read-out: relative change of mean lifespan vs control, Trial 3
[30] = Assay 2(z), 1.0 × 10^9 bacteria/ml, wild type + FuDR (2012 July), read-out: Lifespan assay in liquid
[31] = Assay 3(aa), 2.5 × 10^9 bacteria/ml, wild type + FuDR, read-out: Lifespan assay in liquid
[32] = Assay 4(ab), 2.0 × 10^10 bacteria/ml, CF512 worms, no FuDR, read-out: Lifespan assay on plates

NS(=O)(=O)c1ccc(NC(=O)c2ccc([N+](=O)[O-])o2)cc1 [Gr-1A]
L = PARP inhibition [1]: 0
Induction of at least two of five FOXO3-regulated genes (SOD2, GADD45A, CAT, DDB1, TXNIP) ([2]; 10 μM, 24 hrs): significant induction; also recorded: significant, induction; also recorded: induce FOXO3-regulated genes
E = Potential FOXO3 Activation ([2]; 2-point score): 0
fold induction at 10 µM [2, 6]: 1.36
fold induction at 10 µM ([2]; 24 h, Assay 10(m), at 10 uM, qPCR, read-out: Induction of FOXO3-regulated genes: DDB1 normalized fold-change): 1.16
fold induction at 10 µM ([2]; 24 h, Assay 10(m), at 10 uM, qPCR, read-out: Induction of FOXO3-regulated genes: SESN1 normalized fold-change): 1.93
fold induction at 10 µM ([2]; WI-38, 24 h, read-out: SESN1 expression): > 1.5
fold induction at 10 µM [2, 7]: 1.31
fold induction at 10 µM ([2]; 10 μM, 24 hrs, WI-38 cells, qPCR, normalized to B2M, n = 4, read-out: DDB1 expression, normalized fold change (FOXO3-regulated gene)): 1.36
fold induction at 10 µM [2, 8]: 2.12
fold induction at 10 µM [2, 9]: 1.35
fold induction at 10 µM [2, 10]: 1.27
fold induction at 10 µM [2, 11]: 2.12
fold induction at 10 µM [2, 12]: 1.31
fold induction at 10 µM ([2]; fold change, qPCR, WI-38 cells, 10 μM, 24 hrs, read-out: Summary of effects on FOXO3-regulated genes: DDB1): 1.36
fold induction at 10 µM [2, 13]: 2.12
fold induction at 10 µM [2, 14]: 1.31
fold induction at 10 µM [2, 15]: 1.5
fold induction at 10 µM [2, 16]: 1.23
K = Sestrin induction [2]: 1
E = Potential FOXO3 Activation ([2]; summary score): 0
F = Potential NRF2 Activation ([3]; 2-point score): 2
fold induction at 10 µM [3, 17]: 1.48
fold induction at 10 µM [3, 18]: 1.45
fold induction at 10 µM [3, 19]: 1.45
fold induction at 10 µM [3, 20]: 1.79
fold induction at 10 µM ([3]; rounded fold change, WI-38 cells, 10 μM, 24 hrs, read-out: Summary of effects on NRF2-regulated genes: GCLC): 1.61
fold induction at 10 µM ([3]; 10 μM, 24 hrs, WI-38, read-out: Expression of at least two NRF2 target genes): > 1.5
fold induction at 10 µM ([3]; 10 μM, 24 hrs, WI-38 cells, qPCR, normalized to B2M, n = 4, read-out: GCLC expression, normalized fold change (NRF2-regulated gene)): 1.61
fold induction at 10 µM [3, 21]: 1.45
fold induction at 10 µM [3, 22]: 1.79
fold induction at 10 µM [3, 23]: 1.61
fold induction at 10 µM [3, 24]: 2.53
fold induction at 10 µM [3, 25]: 0.973
fold induction at 10 µM [3, 26]: 1.79
F = Potential NRF2 Activation ([3]; summary score): 0
ILS at 60 µM [4, 27]: -1.3%
ILS at 60 µM [4, 28]: 0.2%
ILS at 60 µM [4, 29]: 14.2%
ILS at 66 µM [4, 30]: -1.3%
ILS at 66 µM [4, 31]: 0.2%
ILS at 66 µM [4, 32]: 14.2%
O = Life span- extending scores in worms [4]: 0
M = Lifespan-extending scores in worms [4]: 0
Percentage of propidium iodide-positive dead cells (no H2O2 stress treatment), at 10 uM [5]: 0.79% ± 0.36%,

O=C(Nc1cc(C(F)(F)F)ccc1Cl)c1ccc([N+](=O)[O-])o1 [Gr-1B]
L = PARP inhibition [1]: 0
Induction of at least two of five FOXO3-regulated genes (SOD2, GADD45A, CAT, DDB1, TXNIP) ([2]; 10 μM, 24 hrs): significant induction; also recorded: significant, induction
E = Potential FOXO3 Activation ([2]; 2-point score): 0
fold induction at 10 µM [2, 6]: 1.4
fold induction at 10 µM ([2]; 24 h, Assay 10(m), at 10 uM, qPCR, read-out: Induction of FOXO3-regulated genes: TXNIP normalized fold-change): 1.52
fold induction at 10 µM [2, 7]: 1.4
fold induction at 10 µM [2, 8]: 1.3
fold induction at 10 µM ([2]; 10 μM, 24 hrs, WI-38 cells, qPCR, normalized to B2M, n = 4, read-out: TXNIP expression, normalized fold change (FOXO3-regulated gene)): 1.94
fold induction at 10 µM [2, 9]: 1.18
fold induction at 10 µM [2, 10]: 0.947
fold induction at 10 µM [2, 11]: 1.3
fold induction at 10 µM [2, 12]: 1.4
fold induction at 10 µM [2, 13]: 1.3
fold induction at 10 µM ([2]; fold change, qPCR, WI-38 cells, 10 μM, 24 hrs, read-out: Summary of effects on FOXO3-regulated genes: TXNIP): 1.94
fold induction at 10 µM [2, 14]: 1.4
fold induction at 10 µM [2, 15]: 1.21
fold induction at 10 µM [2, 16]: 1.94
K = Sestrin induction [2]: 0
E = Potential FOXO3 Activation ([2]; summary score): 0
F = Potential NRF2 Activation ([3]; 2-point score): 0
fold induction at 10 µM [3, 17]: 1.24
fold induction at 10 µM [3, 18]: 1.44
fold induction at 10 µM ([3]; 24 h, Assay 12(o), at 10 uM, qPCR, read-out: Induction of NRF2-regulated genes: NQO1 normalized fold-change): 1.19
fold induction at 10 µM [3, 19]: 2
fold induction at 10 µM [3, 20]: 1.31
fold induction at 10 µM [3, 21]: 2
fold induction at 10 µM [3, 22]: 1.31
fold induction at 10 µM [3, 23]: 1.44
fold induction at 10 µM [3, 24]: 2
fold induction at 10 µM [3, 25]: 1.31
fold induction at 10 µM [3, 26]: 1.31
F = Potential NRF2 Activation ([3]; summary score): 0
ILS at 60 µM [4, 27]: 12.9%
ILS at 60 µM [4, 28]: 8%
ILS at 60 µM [4, 29]: 15.1%
ILS at 66 µM [4, 30]: 12.9%
ILS at 66 µM [4, 31]: 8%
ILS at 66 µM [4, 32]: 15.1%
O = Life span- extending scores in worms [4]: 1 (1 for lifespan extension observed in 2 trials)
M = Lifespan-extending scores in worms [4]: 1 (1 for lifespan extension observed in 2 trials)
PI cell-death imaging without H2O2 (indicating potential toxicity) ([5]; Assay 8(k), without H2O2, at 10 uM): YES
PI-positive dead cells under normal conditions ([5]; WI-38, no H2O2, control 0.4±0.2%): 1.0%±0.3%
Percentage of propidium iodide-positive dead cells (no H2O2 stress treatment), at 10 uM [5]: 1.03% ± 0.34%,
